Test results taken from patent US20090023810A1, “METHODS OF TRANSLATION AND/OR INFLAMMATION BLOCKADE” (priority 2007, published 2009).

Legend:
HeLa cells [1] = assay: Ribosome (polysome) profiling with sucrose gradient in HeLa cells; format: cell-based; conditions: SA 400 μM 30 minutes; 15d-PGJ2 or PGE2 50 μM 1 hour, FIG. 4C
Procedure: Experiments were performed as described elsewhere (Kedersha et al., 2000, which is hereby incorporated by reference for all purposes as if fully set forth herein) using a 0.5-1.5 M sucrose gradient.
It is well known that inhibition of translation and SG formation alters the polysome profile. HeLa cells were mock-treated or treated with SA (400 μM) for 30 minutes, 15d-PGJ2 (50 μM) for 1 hour, or PGE2 (50 μM) for 1 hour. A sucrose gradient experiment was performed as described above, and the obtained results are shown in FIG. 4C, wherein the lines show observance at 254 nm.

HeLa cells [2] = assay: Stress granule (SG) formation in HeLa cells, immunocytochemistry; format: cell-based; conditions: HeLa
Procedure: The immunocytochemical analyses of proteins were performed as described elsewhere (Kim et al., 2005, which is hereby incorporated by reference for all purposes as if fully set forth herein).
HeLa cells that were mock-treated (Mock) or treated with PGA1, 15d-PGJ2, PGE2, SA, arachidonic acid (AA), ciglitazone (Ci), troglitazone (Tro), and rosiglitazone (Rosi) (at indicated concentrations) for 30 minutes.
HeLa cells were treated with lovastatin (100 μM), lipoxin A4 (LXA4, 10 μM), lipoxin B4 (LXB4, 10 μM), epi-lipoxin A4 (epi-LxA4, 10 μM), TGF-β (100 ng/ml), interleukin-10 (IL-10, 100 ng/ml) for 1 hour.
Emetine freezes ribosomes in the polysomal state and inhibits SG formation (Anderson and Kedersha, 2006). HeLa cells that were pretreated for 1 hour with 10 μg/ml of emetine and then treated with 15d-PGJ2 (50 μM) for 1 hour, and subjected to immunocytochemical analyses.
The amounts of 15d-PGJ2 required for SG formation were measured.

ribosomes = assay: Ribosomal pull-down with biotinylated β-globin mRNA in RRL; format: biochemical, rabbit; conditions: 10 μM or 50 μM, FIG. 12B
Procedure: Ribosomal pull-downs were performed as described by Colon-Ramos et al. (Colon-Ramos et al., 2006, which is hereby incorporated by reference for all purposes as if fully set forth herein). Biotinylated β-globin mRNAs synthesized from plasmid pcDNA3-7B-ARE-MS2bs were incubated in an RRL (Promega) in the presence or absence of 15d-PGJ2. After the translation reactions, 10 μg/ml of cycloheximide was added to stop the translation, and then reaction mixtures were incubated with 50 μl of streptavidin Sepharose beads at 4° C. for 1 h. Precipitated resins were washed three times, resolved by SDS-PAGE and then transferred to a nitrocellulose membrane.
In addition, effects of 15d-PGJ2 on HCV IRES-dependent translation and ribosome binding of mRNA are examined, as shown in FIGS. 12A and 12B. In FIG. 12A, HCV IRES-dependent translation is not affected by 15d-PGJ2. In vitro translation of an mRNA (40 nM) containing Renilla luciferase under the control of the HCV IRES was performed in RRL (Promega) for 1 hour with the addition of purified eIF4A1 protein (0 ng, lanes 1 and 2; 250 ng, lanes 3 and 4; 500 ng, lanes 5 and 6). 15d-PGJ2 (50 μM) was added to the translation mixtures shown in lanes 2, 4, and 6. Relative luciferase activities to the mock-treated sample (lane 1) are shown in columns (mean values). Bars indicate standard deviation values. […]

HeLa cells [3] = assay: In vivo [35S]-methionine labeling of newly synthesized proteins in HeLa cells; format: cell-based; conditions: FIG. 4A (30 minutes, concentrations) and FIG. 4B (90 μM, times)
Procedure: HeLa cells were treated with various agents and for various times, as indicated in […] and the brief description thereof. HeLa Cells on 60-mm culture dishes were then washed twice with phosphate-buffered saline (PBS) and incubated in methionine-free Dulbecco's Modified eagle's medium (DMEM) (BMS) medium for 1 hour. Cells were incubated for 30 minutes after supplementation with [^35S]-methionine ([^35S]-Met) ([…]; NEN Life Science Products), washed twice with ice-cold PBS, harvested, and then lysed with the NP-40 lysis buffer. The cell lysates were centrifuged and the protein concentrations in the cell lysates were measured using the Bradford assay method. To quantify newly synthesized proteins, cell lysates labeled with [^35S]-Met were precipitated with 10% trichloroacetic acid (TCA) (w/v), and the precipitated proteins were then dissolved in water and analyzed by a liquid scintillation assay (Packard).
As SG formation is accompanied by translational blockade, the effects of 15d-PGJ2 on protein synthesis were investigated. In FIG. 4A, HeLa cells grown on 60-mm dishes up to about 70-80% confluence were mock-treated (1) or treated with PGA1 (2, 3, and 4), 15d-PGJ2 (5 and 6 and 7), or PGE2 (8, 9, and 10) at the indicated concentrations in FIG. 4A for 30 minutes. Then in vivo labeling of newly synthesized proteins was performed as described above. 4200 CPM was obtained from the TCA-precipitated control sample (lane 1), and phosphorylated eIF2α levels were monitored by Western-blot analyses (bottom panel). In FIG. 4B, cells were mock-treated (1), treated with SA (400 μM) (2 and 3), with PGA1 (90 μM) (4-6), with 15d-PGJ2 (90 μM) (7-9), and with PGE2 (90 μM) (10-12) as indicated times. Newly synthesized proteins were measured as panel (A). 4500 CPM was obtained from the TCA-precipitated control sample (lane 1). Phosphorylated eIF2α levels were monitored by Western-blot analyses (bottom panel) and the obtained results are shown in FIG. 4B.

SH-SY5Y cells = assay: SG formation in SH-SY5Y cells, immunocytochemistry; format: cell-based, human; conditions: 30 μM, 1 h
Procedure: SH-SY5Y cells originated from a human neuroblastoma were mock-treated or treated with 15d-PGJ2 (30 μM) for 1 h, heat at 44° C. for 1 h, or PGE2 (30 μM) for 1 h. The same set of experiments as outlined in FIG. 9A were performed with RAW264.7 macrophage cells. HEK 293T cells were mock-treated or treated with 15d-PGJ2 (50 μM) for 1 hour. Immunocytochemical analyses were performed with antibodies against eIF4GI and TIAR and the obtained results are shown in FIG. 9C.

[4] = 30 minutes, TIA-1 antibody, FIG. 1A

Row | SMILES | Polysome profile / ribosomal shift (HeLa cells [1]) | SG formation (HeLa cells [2]; 10 μM, 12-24 hours, FIG. 1D) | SG formation (HeLa cells [2]; [4]) | SG inducer strength compared (HeLa cells [2]; FIG. 1A panel b vs c) | Binding of a cap-dependent mRNA to ribosomes (ribosomes) | Total protein synthesis (35S-methionine labeling) (HeLa cells [3]) | SG formation (SH-SY5Y cells)
1 | CCCCC/C=C/C=C1/C(=O)C=C[C@@H]1C/C=C\CCCC(=O)O [15d-PGJ2, 15-deoxy-delta 12,14-prostaglandin J2] | Ribosomal shift to the subunit state was also observed | SGs were formed | induced SG formation | stronger SG inducer than PGA1 | impairs the binding of a cap-dependent mRNA to ribosomes | inhibited by 15d-PGJ2 in a concentration-dependent manner | induced SG formation
2 | CCCCC[C@H](O)/C=C/[C@H]1[C@H](O)CC(=O)[C@@H]1C/C=C\CCCC(=O)O [PGE2, prostaglandin E2] | did not induce a ribosomal shift | – | did not induce SG formation | – | – | did not block translation | –
